From patent US4808596A, “Imidazo[4,5-b]pyridine compounds and pharmaceutical compositions containing same” (Tokyo Tanabe Company, Ltd., priority 1986, dated 1989)
Blank lines part the entries; values can stand above or below the compound they belong to.

Tests used:
[1] = test system: Hydrochloric acid-ethanol ulcer; assay: Inhibitory effect on hydrochloric acid-ethanol ulcer; assay type: in vivo, male Wistar rats; conditions: Rattus norvegicus; oral, rats; 30 minutes before hydrochloric acid-ethanol; 1 hour; read-out: Inhibitory effect on Hydrochloric acid-ethanol ulcer, ID50
Experimental: (§1) The inhibitory effects of the present compounds [I] on various experimental ulcers were tested by using male Wistar rats, weighing about 200 g, in groups of six and determining the respective ulceration indexes for 5 types of experimental ulcers. In each test, the test compounds were suspended in a 0.5% aqueous solution of carboxymethyl cellulose and administered orally in a series of appropriately selected doses ranging from 1 to 100 mg/kg. The test procedures for 5 types of experimental ulcers were as follows:
To rats which had been fasted for 24 hours, a 150 mM hydrochloric acid-60% ethanol mixture was orally administered in an amount of 0.5 ml per 100 g of body weight. After an hour, each rat was sacrificed and the length of the ulcer(s) formed in the glandular stomach part was measured. The ulceration index was calculated on the basis of the data thus obtained. The test compounds were administered 30 minutes before administration of the hydrochloric acid-ethanol mixture.
(§2) The pharmacological effect of the test compounds on each of the aforesaid experimental ulcers was evaluated on the basis of the dose (in mg/kg) required to inhibit the formation of ulcers by 50% (hereinafter referred to as ID50). The ID50 value of each test compound was determined by calculating the difference in ulceration index between the untreated group and each treated group, dividing the difference by the ulceration index of the untreated group to obtain the degree of inhibition, and constructing a dose-response curve on the basis of the data thus obtained. For purposes of comparison, the ID50 values of Omeprazole and Compounds α and β were determined in the same manner as described above and are also shown in Table 4.

(H^+ +K^+) ATPase = target: T1, (H^+ +K^+) ATPase (Sus scrofa, UniProt P19156); assay: Inhibitory effect on (H^+ +K^+) ATPase; assay type: biochemical, hog; conditions: in vitro; for inhibition at 1000 µM: at 1 × 10^-3 M, read-out: Degree of inhibition, Inhibitory effect on (H^+ + K^+) ATPase
T1 construct: prepared from fresh pieces of the fundus ventriculi of hog stomach; from tissue; host or cells: hog stomach, fundus ventriculi (fresh pieces), prepared by the method of Saccomani et al., J. Biol. Chem. 1976
Experimental: The inhibitory effect of the present compounds [I] on (H^+ +K^+) ATPase was tested by adding each test compound to a solution containing 300-500 μg, on a protein basis, of the enzyme, incubating this reaction mixture at 35°-37° C. for 5-30 minutes, and then determining the residual activity of (H^+ +K^+) ATPase present in the reaction mixture. The test compounds were dissolved in methanol or ethanol in advance and added to the reaction system in such an amount as to give a concentration of 1×10^-3 M. The (H^+ +K^+) ATPase used in this test was prepared from fresh pieces of the fundus ventriculi of hog stomach according to the method of Saccomani et al. (The Journal of Biological Chemistry, Vol. 251, No. 23, p. 7690, 1976). The residual activity of (H^+ +K^+) ATPase was determined by mixing magnesium chloride and potassium chloride with the incubated reaction mixture, adding adenosine triphosphate thereto, incubating this assay mixture 37° C. for 5-15 minutes to effect an enzymic reaction, and colorimetrically determining the liberated inorganic phosphate by use of an ammonium molybdate reagent. The initial concentrations of magnesium chloride, potassium chloride and adenosine triphosphate were adjusted to 2 mM, 20 mM and 2 mM, respectively. Colorimetric determinations were made at a wavelength of 360-400 nm. As a control experiment, the residual activity of (H^+ +K^+) ATPase was determined by repeating the above-described procedure without adding any test compound to the reaction system. In this table, the inhibitory effect is indicated by the degree of inhibition which was obtained by calculating the difference between the measured value obtained in the control experiment and the measured value resulting from the addition of each test compound and expressing this difference as a percentage of the measured value obtained in the control experiment. For purposes of comparison, the inhibitory effect of Omeprazole and Compounds α and β on (H^+ +K^+) ATPase was tested in the same manner as described above and the results thus obtained are also shown in Table 2.

Shay's ulcer = assay: Inhibitory effect on Shay's ulcer; assay type: in vivo, male Wistar rats; conditions: Rattus norvegicus; oral, rats; 30 minutes before ligation; 14 hours; read-out: Inhibitory effect on Shay's ulcer, ID50
Experimental: as §1
In rats which had been fasted for 48 hours, the pyloric end of the stomach was ligated and they were maintained for 14 hours without giving any food or water. Then, each rat was sacrificed and the area of the ulcer(s) formed in the forestomach part was measured. The ulceration index was calculated on the basis of the data thus obtained. The test compounds were administered 30 minutes before ligation.
as §2

gastric acid secretion = assay: Inhibitory effect on gastric acid secretion (pylorus ligation); assay type: in vivo, male Wistar rats; conditions: for ED50: Rattus norvegicus, po, rats, total acidity of gastric juice 4 hours after pylorus ligation; for inhibitory effect on gastric acid secretion (in words): in vivo
Experimental: The inhibitory effect of the present compounds [I] on gastric acid secretion was tested by using male Wistar rats, weighing about 200 g, in groups of five. To these rats which had been fasted overnight, the test compounds were orally administered in a series of appropriately selected doses ranging from 1 to 100 mg/kg. Then, the pyloric end of the stomach was ligated. After the lapse of 4 hours, the total acidity of gastric juice of each rat was measured. More specifically, the test compounds were suspended in a 0.5% aqueous solution of carboxymethyl cellulose and administered to the rats 30 minutes before ligation. Gastric juice was collected by sacrificing and laparotomizing each rat. The total acidity of gastric juice was determined by titrating the gastric juice with a 0.1 N aqueous solution of sodium hydroxide until a pH of 7.0 was reached. As a control experiment, the total acidity of gastric juice of an untreated group was determined in the same manner as described above. The inhibitory effect of the test compounds on gastric acid secretion was evaluated on the basis of the dose (in mg/kg) required to inhibit gastric acid secretion, i.e. the total acidity of gastric juice, by 50% (hereinafter referred to as ED50). The ED50 value of each test compound was determined by calculating the difference in total acidity between the untreated group and each treated group, dividing the difference by the total acidity of the untreated group to obtain the degree of inhibition, and constructing a dose-response curve on the basis of the data thus obtained. For purposes of comparison, the ED50 values of Omeprazole and Compounds α and β were determined in the same manner as described above and are also shown in Table 3.

[2] = Acute toxicity test (LD50); conditions: rat, in vivo, rats
Experimental: The acute toxicity (LD50) of several typical examples of the present compounds [I] (i.e., the compounds of Examples 1, 8, 13, 19, 24, 26 and 33) was tested with 5-weeks-old male Wistar rats. […] When Omeprazole was administered orally, its LD50 value was greater than 4000 mg/kg.

[3] = ip, intraperitoneal administration

T1 sequence (P19156 2-1034 limits assumed): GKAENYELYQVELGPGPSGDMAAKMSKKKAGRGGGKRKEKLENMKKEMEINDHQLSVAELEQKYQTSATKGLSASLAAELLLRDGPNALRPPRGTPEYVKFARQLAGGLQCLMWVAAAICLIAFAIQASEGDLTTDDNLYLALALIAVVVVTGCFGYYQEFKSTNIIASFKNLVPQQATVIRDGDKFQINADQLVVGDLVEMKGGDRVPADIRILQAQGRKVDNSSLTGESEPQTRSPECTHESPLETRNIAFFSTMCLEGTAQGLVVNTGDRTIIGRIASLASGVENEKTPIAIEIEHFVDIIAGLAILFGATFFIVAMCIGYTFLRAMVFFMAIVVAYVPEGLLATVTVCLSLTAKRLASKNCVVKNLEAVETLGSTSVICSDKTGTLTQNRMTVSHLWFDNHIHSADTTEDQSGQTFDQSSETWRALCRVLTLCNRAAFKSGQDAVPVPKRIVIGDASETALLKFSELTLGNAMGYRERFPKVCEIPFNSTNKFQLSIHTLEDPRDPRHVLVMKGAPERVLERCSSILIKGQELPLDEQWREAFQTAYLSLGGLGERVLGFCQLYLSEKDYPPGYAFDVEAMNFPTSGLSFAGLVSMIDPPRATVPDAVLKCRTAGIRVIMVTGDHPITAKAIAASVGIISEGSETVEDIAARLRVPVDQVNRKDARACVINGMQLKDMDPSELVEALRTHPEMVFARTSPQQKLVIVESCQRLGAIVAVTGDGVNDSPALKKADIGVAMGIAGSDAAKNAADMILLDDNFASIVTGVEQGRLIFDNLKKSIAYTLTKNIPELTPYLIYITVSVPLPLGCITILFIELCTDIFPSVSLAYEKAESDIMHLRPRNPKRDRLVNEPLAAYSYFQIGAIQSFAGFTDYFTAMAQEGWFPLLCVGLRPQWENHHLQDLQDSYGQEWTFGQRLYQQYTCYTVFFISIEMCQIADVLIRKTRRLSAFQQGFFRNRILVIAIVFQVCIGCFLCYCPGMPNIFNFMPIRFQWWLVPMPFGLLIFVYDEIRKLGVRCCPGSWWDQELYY
T1 sequence (P18434 whole entry partner): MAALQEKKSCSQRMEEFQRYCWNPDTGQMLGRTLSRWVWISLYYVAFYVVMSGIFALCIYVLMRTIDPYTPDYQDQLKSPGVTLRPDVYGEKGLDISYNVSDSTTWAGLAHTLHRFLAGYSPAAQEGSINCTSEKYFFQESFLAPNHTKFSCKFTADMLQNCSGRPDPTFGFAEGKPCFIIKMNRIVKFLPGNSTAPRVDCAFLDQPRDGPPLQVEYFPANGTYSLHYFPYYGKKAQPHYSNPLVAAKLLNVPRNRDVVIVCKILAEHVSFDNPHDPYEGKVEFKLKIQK

- inhibition at 1000 µM ((H^+ +K^+) ATPase): 100%
- inhibitory effect on (H^+ +K^+) ATPase (in words) ((H^+ +K^+) ATPase): marked inhibitor effect
Structure (SMILES): COc1c(C)cnc(C[S+]([O-])c2nc3ncc(C)cc3[nH]2)c1C (stereo not drawn) [Compound β, 2-[2-(3,5-dimethyl-4-methoxy)pyridylmethylsulfinyl]-6-methylimidazo[4,5-b]-pyridine, reference compound]
- ED50 [1]: 25.4 mg/kg
- ED50 (Shay's ulcer): 42 mg/kg
- ED50 (gastric acid secretion): 41 mg/kg
- inhibitory effect on gastric acid secretion (in words) (gastric acid secretion): not satisfactorily reflected in the in vivo tests

Structure (SMILES): COc1ccc2[nH]c([S+]([O-])Cc3ncc(C)c(OC)c3C)nc2c1 (centres unmarked) [Omeprazole, reference compound]
- ED50 [1]: 13.6 mg/kg
- inhibition at 1000 µM ((H^+ +K^+) ATPase): 38.7%
- ED50 (Shay's ulcer): 30.3 mg/kg
- ED50 (gastric acid secretion): 35 mg/kg
- LD50 ([2]; oral administration): > 4000 mg/kg

Structure (SMILES): CCCCCCCOc1ccc2[nH]c([S+]([O-])Cc3ncc(C)cc3C)nc2n1 (centres unmarked) [Example 33, 2-[2-(3,5-Dimethyl)pyridylmethylsulfinyl]-5-n-heptyloxyimidazo[4,5-b]pyridine]
- ED50 [1]: 10.3 mg/kg
- inhibition at 1000 µM ((H^+ +K^+) ATPase): 95.4%
- ED50 (Shay's ulcer): 19.2 mg/kg
- ED50 (gastric acid secretion): 17 mg/kg
- LD50 [2, 3]: > 500 mg/kg
- LD50 ([2]; oral administration): > 4000 mg/kg

Structure (SMILES): COc1c(C)cnc(C[S+]([O-])c2nc3nc(OCC(F)(F)F)ccc3[nH]2)c1C (centres unmarked) [Example 26, 2-[2-(3,5-Dimethyl-4-methoxy)pyridylmethylsulfinyl]-5-(2,2,2-trifluoroethoxy)imidazo[4,5-b]pyridine]
- ED50 [1]: 7.9 mg/kg
- inhibition at 1000 µM ((H^+ +K^+) ATPase): 100%
- ED50 (Shay's ulcer): 14.7 mg/kg
- ED50 (gastric acid secretion): 15 mg/kg
- LD50 [2, 3]: > 500 mg/kg
- LD50 ([2]; oral administration): > 4000 mg/kg

- inhibition at 1000 µM ((H^+ +K^+) ATPase): 100%
- inhibitory effect on (H^+ +K^+) ATPase (in words) ((H^+ +K^+) ATPase): marked inhibitor effect
Structure (SMILES): COc1c(C)cnc(C[S+]([O-])c2nc3ncc(Br)cc3[nH]2)c1C (stereo not drawn) [Compound α, 2-[2-(3,5-dimethyl-4-methoxy)pyridylmethylsulfinyl]-6-bromoimidazo[4,5-b]pyridine, reference compound]
- ED50 [1]: 63.3 mg/kg
- ED50 (Shay's ulcer): ≥ 100 mg/kg
- ED50 (gastric acid secretion): 73 mg/kg
- inhibitory effect on gastric acid secretion (in words) (gastric acid secretion): not satisfactorily reflected in the in vivo tests

Structure (SMILES): COc1c(C)cnc(C[S+]([O-])c2nc3nc(OCC4CC4)ccc3[nH]2)c1C (centres unmarked) [Example 24, 2-[2-(3,5-Dimethyl-4-methoxy)pyridylmethylsulfinyl]-5-cyclopropylmethyloxyimidazo[4,5-b]pyridine]
- ED50 [1]: 3.5 mg/kg
- inhibition at 1000 µM ((H^+ +K^+) ATPase): 100%
- ED50 (Shay's ulcer): 10.8 mg/kg
- ED50 (gastric acid secretion): 9 mg/kg
- LD50 [2, 3]: > 500 mg/kg
- LD50 ([2]; oral administration): > 4000 mg/kg

Structure (SMILES): CCOc1ccc2[nH]c([S+]([O-])Cc3ncc(C)c(C)c3C)nc2n1 (centres unmarked) [Example 8, 2-[2-(3,4,5-Trimethyl)pyridylmethylsulfinyl]-5-ethoxyimidazo[4,5-b]pyridine]
- ED50 [1]: 8.2 mg/kg
- inhibition at 1000 µM ((H^+ +K^+) ATPase): 100%
- ED50 (Shay's ulcer): 15.1 mg/kg
- ED50 (gastric acid secretion): 12 mg/kg
- LD50 [2, 3]: > 500 mg/kg
- LD50 ([2]; oral administration): > 4000 mg/kg

Structure (SMILES): COc1cc(C[S+]([O-])c2nc3nc(OCC4CC4)ccc3[nH]2)ncc1C (centres unmarked) [Example 13, 2-[2-(4-Methoxy-5-methyl)pyridylmethylsulfinyl]-5-cyclopropylmethyloxyimidazo[4,5-b]pyridine]
- ED50 [1]: 9.6 mg/kg
- inhibition at 1000 µM ((H^+ +K^+) ATPase): 87.4%
- ED50 (Shay's ulcer): 17.4 mg/kg
- ED50 (gastric acid secretion): 18 mg/kg
- LD50 [2, 3]: > 500 mg/kg
- LD50 ([2]; oral administration): > 4000 mg/kg

Structure (SMILES): COc1ccc2[nH]c([S+]([O-])Cc3ncc(C)cc3C)nc2n1 (centres unmarked) [Example 1, 2-[2-(3,5-Dimethyl)pyridylmethylsulfinyl]-5-methoxyimidazo[4,5-b]pyridine]
- ED50 [1]: 5.1 mg/kg
- inhibition at 1000 µM ((H^+ +K^+) ATPase): 100%
- ED50 (Shay's ulcer): 11 mg/kg
- ED50 (gastric acid secretion): 13 mg/kg
- LD50 [2, 3]: > 500 mg/kg
- LD50 ([2]; oral administration): > 4000 mg/kg
